According to patent US20230250064A1, “PREPARATION METHOD FOR FUSED PYRAZOLE-TYPE COMPOUND” (SHANGHAI MEIYUE BIOTECH DEVELOPMENT CO., LTD., priority 2020, published 2023):

The compounds below were run against T1, human IRAK4 (Homo sapiens, UniProt Q9NWZ3) (assay: IRAK4 MSA (Mobility-Shift Assay), inhibition of human IRAK4 kinase activity). Conditions: GST-IRAK4 1 nM, ATP at Km concentration (37 μM), 28° C. for 1 h, Caliper EZ Reader; read-out: IC50 against human IRAK4 kinase activity.
T1 construct: purchased Carna
T1 sequence (Q9NWZ3 1-460): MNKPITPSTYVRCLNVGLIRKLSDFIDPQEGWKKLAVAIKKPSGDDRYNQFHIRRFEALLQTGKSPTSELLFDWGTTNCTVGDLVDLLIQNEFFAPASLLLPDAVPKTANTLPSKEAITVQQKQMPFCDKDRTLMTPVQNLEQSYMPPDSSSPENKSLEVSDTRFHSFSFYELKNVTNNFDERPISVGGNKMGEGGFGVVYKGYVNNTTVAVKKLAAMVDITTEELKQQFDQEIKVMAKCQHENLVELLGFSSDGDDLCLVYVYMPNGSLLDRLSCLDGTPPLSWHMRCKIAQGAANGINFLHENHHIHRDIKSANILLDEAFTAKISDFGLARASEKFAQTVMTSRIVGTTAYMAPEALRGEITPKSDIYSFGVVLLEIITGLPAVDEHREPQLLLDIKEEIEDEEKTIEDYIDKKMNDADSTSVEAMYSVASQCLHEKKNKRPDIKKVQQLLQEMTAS
Type: biochemical
Description: The inhibitory activity of the compounds against IRAK4 at the Km concentration of ATP was measured in IRAK4 MSA (Mobility-Shift Assay, a mobility detection of microfluidic chip technology).
A recombinant fusion protein of N-terminal GST (glutathione-S-transferase) and human IRAK4 was used as enzyme (GST-IRAK4, kinase IRAK4 (Carna)) at a final concentration of 1 nM; ATP (Sigma) was at a final concentration of 37 μM; the substrates used for the kinase reaction were 5-FAM (5-carboxyfluorescein)-labeled polypeptide (5-FAM-IPTSPITTTYFFFKKK-COOH) and substrate peptide FAM-P8 (GL Biochem) at final concentrations of 5 μM.
In this assay, a 500 μM stock solution of the compounds was prepared in 100% DMSO, and serially 4-fold diluted to the 10th concentrations with 100% DMSO, followed by a 10-fold dilution with the compound buffer (50 mM HEPES, pH 7.5, 0.00015% Brij-35) to give intermediate dilutions of the compounds at final concentrations of 10 μM-0.04 nM containing 10% DMSO. The intermediate dilutions was transferred into a black 384-well plate at a volume of 5μL.
Kinase IRAK4 was diluted to 2.5 nM with the kinase buffer (50 mM HEPES, pH 7.5, 0.00015% Brij-35, 2 mM DTT). 10 μL of the IRAK4 dilution was transferred to the 384-well plate and co-incubated with the compound for 10-15 min.
The substrate and ATP were diluted to 12.5 μM and 92.5 μM with reaction buffer (50 mM HEPES, pH 7.5, 0.00015% Brij-35, 10 mM MgCl2), respectively. 10 μL of the dilutions was transferred to the 384-well plate and incubated at 28° C. for 1 h. The reaction was terminated by adding 25 μL of 50 mM EDTA to the 384-well plate.
The inhibition rates of IRAK4 by the compounds were calculated by measuring the conversion rate of phosphorylation of the substrate using a Caliper EZ Reader (PerkinElmer) and the IC50 was calculated by XL-fit software.

IC50	Compound
2.5 nM	COc1cc2nn([C@H]3CC[C@H](O)CC3)cc2cc1NC(=O)c1cccc(C2CC2)[n+]1[O-] [Compound 2, 6-cyclopropyl-1-oxy-pyridine-2-carbomoylic acid [2-(4′-hydroxy-trans-cyclohexyl)-6-methoxy-2H-indazol-5-yl]-amide]
1.1 nM	COc1cc2nn([C@H]3C[C@H](C(C)(C)O)C3)cc2cc1NC(=O)c1cccc(C(F)(F)F)n1 [Compound 1, 6-trifluoromethyl-pyridine-2-carbomoylic acid {2-[3′-(1-hydroxy-1-methyl-ethyl)-cyclobutyl]-6-methoxy-2H-indazol-5-yl} -amide]
4.6 nM	COc1cc2nn([C@H]3CC[C@](C)(O)CC3)cc2cc1NC(=O)c1cccc(C)[n+]1[O-] [Compound 4, 6-methyl-1oxo-pyridine-2-carbomoylic acid [2-(4′-hydroxy-4-methyl-cyclohexyl)-6-methoxy-2H-indazol-5-yl]-amide]

Compound	IC50
quinoline-8-carbomoylic acid [2-(4′-hydroxy-4-methyl-cyclohexyl)-6-methoxy-2H-indazol-5-yl]-amide [Compound 3]	3.3 nM
